Assay results taken from patent publication US8440660B2 (Santen Pharmaceutical Co., Ltd., priority 2006, dated 2013).

target: T1, Glucocorticoid Receptor (GR) (Homo sapiens, UniProt P04150); assay: GR receptor competitor assay by fluorescence polarization (Invitrogen GR competitor assay kit, cat No. P2816); details: 20 μM test compound solution, 10 μL per well plus 5 μL 4×GS1 and 5 μL 4×GR solution; recombinant human GR; 2 to 4 hours at room temperature; a ratio of 100% or more is indicated by 100%; read-out: GR Binding ratio (%)
T1 construct: purchased Invitrogen P2816
T1 sequence (P04150 1-777): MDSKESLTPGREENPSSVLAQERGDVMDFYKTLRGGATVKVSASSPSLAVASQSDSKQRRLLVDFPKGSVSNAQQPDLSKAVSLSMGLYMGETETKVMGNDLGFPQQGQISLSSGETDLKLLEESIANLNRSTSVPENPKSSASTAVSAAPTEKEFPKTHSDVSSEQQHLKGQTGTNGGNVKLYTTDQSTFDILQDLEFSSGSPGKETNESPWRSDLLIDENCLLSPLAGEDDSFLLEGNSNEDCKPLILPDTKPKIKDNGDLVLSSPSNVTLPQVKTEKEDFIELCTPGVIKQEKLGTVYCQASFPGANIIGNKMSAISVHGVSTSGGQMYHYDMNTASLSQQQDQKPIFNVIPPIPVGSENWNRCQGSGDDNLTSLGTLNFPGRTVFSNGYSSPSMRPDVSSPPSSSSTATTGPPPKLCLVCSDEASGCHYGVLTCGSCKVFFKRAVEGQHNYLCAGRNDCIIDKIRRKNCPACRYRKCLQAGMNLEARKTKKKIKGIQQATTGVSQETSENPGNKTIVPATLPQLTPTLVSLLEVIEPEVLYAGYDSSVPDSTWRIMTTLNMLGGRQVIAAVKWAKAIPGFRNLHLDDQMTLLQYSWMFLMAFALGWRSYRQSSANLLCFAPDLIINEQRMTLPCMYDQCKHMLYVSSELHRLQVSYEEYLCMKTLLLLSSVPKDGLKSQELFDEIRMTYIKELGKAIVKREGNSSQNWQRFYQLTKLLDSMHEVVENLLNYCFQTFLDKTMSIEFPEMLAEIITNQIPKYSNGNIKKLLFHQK
Outline: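 Recombinant human GR with fluorescent ligand Fluormone GS1 in pH 7.4 phosphate buffer with molybdate, EDTA, DTT, stabilizing peptide and 2% DMSO; compound added as 20 μM solution (pre-mix). FP read after 2–4 h at room temperature in the dark. Binding ratio (%) normalized between buffer and dexamethasone controls.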

| Compound | inhibition at 10 µM [%] |
| --- | --- |
| COc1ccc([N+](=O)[O-])cc1OCc1c(-c2ccc(OC(=O)c3ccccc3OC)cc2OC)ccc2c1C(C)=CC(C)(C)N2 [Compound 1-102, 6-[2-Methoxy-4-(2-methoxybenzoyloxy)phenyl]-5-(2-methoxy-5-nitrophenoxymethyl)-2,2,4-trimethyl-1,2-dihydroquinoline] | 100 |
| COc1cc(OC(=O)c2ccc(C)nc2)ccc1-c1ccc2c(c1COc1cc(F)ccc1C)C(C)=CC(C)(C)N2 [Compound 1-69, 5-(5-Fluoro-2-methylphenoxymethyl)-6-[2-methoxy-4-(6-methylpyridin-3-ylcarbonyloxy)phenyl]-2,2,4-trimethyl-1,2-dihydroquinoline] | 100 |
| COc1cc(OC(=O)c2ccccn2)ccc1-c1ccc2c(c1COc1cc(F)ccc1C)C(C)=CC(C)(C)N2 [Compound 1-35, 5-(5-Fluoro-2-methylphenoxymethyl)-6-[2-methoxy-4-(pyridin-2-ylcarbonyloxy)phenyl]-2,2,4-trimethyl-1,2-dihydroquinoline] | 100 |
| COc1cc(OC(=O)N2CCOCC2)ccc1-c1ccc2c(c1COc1cc(F)ccc1C)C(C)=CC(C)(C)N2 [Compound 6-18, 5-(5-Fluoro-2-methylphenoxymethyl)-6-[2-methoxy-4-(morpholin-4-ylcarbonyloxy)phenyl]-2,2,4-trimethyl-1,2-dihydroquinoline] | 100 |
| COc1ccc([N+](=O)[O-])cc1OCc1c(-c2ccc(OC(=O)c3ccccc3Cl)cc2OC)ccc2c1C(C)=CC(C)(C)N2 [Compound 1-98, 6-[4-(2-Chlorobenzoyloxy)-2-methoxyphenyl]-5-(2-methoxy-5-nitrophenoxymethyl)-2,2,4-trimethyl-1,2-dihydroquinoline] | 100 |
| COc1cc(OC(=O)c2cscn2)ccc1-c1ccc2c(c1COc1cc(F)ccc1C)C(C)=CC(C)(C)N2 [Compound 1-54, 5-(5-Fluoro-2-methylphenoxymethyl)-6-[2-methoxy-4-(thiazol-4-ylcarbonyloxy)phenyl]-2,2,4-trimethyl-1,2-dihydroquinoline] | 100 |
| COc1cc(OC(=O)c2ccco2)ccc1-c1ccc2c(c1COc1cc([N+](=O)[O-])ccc1C)C(C)=CC(C)(C)N2 [Compound 1-95, 6-[4-(Furan-2-ylcarbonyloxy)-2-methoxyphenyl]-5-(2-methyl-5-nitrophenoxymethyl)-2,2,4-trimethyl-1,2-dihydroquinoline] | 93 |
| COc1cc(OC(=O)c2cccnc2OC)ccc1-c1ccc2c(c1COc1cc(F)ccc1C)C(C)=CC(C)(C)N2 [Compound 1-125, 5-(5-Fluoro-2-methylphenoxymethyl)-6-[2-methoxy-4-(2-methoxypyridin-3-ylcarbonyloxy)phenyl]-2,2,4-trimethyl-1,2-dihydroquinoline] | 100 |
| CCC(=O)Oc1ccc(-c2ccc3c(c2COc2cc(F)ccc2C)C(C)=CC(C)(C)N3)c(OC)c1 [Compound 1-16, 5-(5-Fluoro-2-methylphenoxymethyl)-6-(2-methoxy-4-propionyloxyphenyl)-2,2,4-trimethyl-1,2-dihydroquinoline] | 100 |
| COc1ccc([N+](=O)[O-])cc1OCc1c(-c2ccc(OC(=O)c3cccnc3C)cc2OC)ccc2c1C(C)=CC(C)(C)N2 [Compound 1-101, 6-[2-Methoxy-4-(2-methylpyridin-3-ylcarbonyloxy)phenyl]-5-(2-methoxy-5-nitrophenoxymethyl)-2,2,4-trimethyl-1,2-dihydroquinoline] | 99 |
| COc1ccc(OC(=O)c2ccccn2)cc1-c1ccc2c(c1COc1cc(F)ccc1C)C(C)=CC(C)(C)N2 [Compound 1-44, 5-(5-Fluoro-2-methylphenoxymethyl)-6-[2-methoxy-5-(pyridin-2-ylcarbonyloxy)phenyl]-2,2,4-trimethyl-1,2-dihydroquinoline] | 100 |
| COc1ccc([N+](=O)[O-])cc1OCc1c(-c2ccc(OC(=O)c3ccsc3)cc2OC)ccc2c1C(C)=CC(C)(C)N2 [Compound 1-115, 5-(2-Methoxy-5-nitrophenoxymethyl)-6-[2-methoxy-4-(thiophen-3-ylcarbonyloxy)phenyl]-2,2,4-trimethyl-1,2-dihydroquinoline] | 97 |
| CCCS(=O)(=O)Oc1ccc(-c2ccc3c(c2COc2cc([N+](=O)[O-])ccc2C)C(C)=CC(C)(C)N3)c(OC)c1 [Compound 4-25, 6-(2-Methoxy-4-propylsulfonyloxyphenyl)-5-(2-methyl-5-nitrophenoxymethyl)-2,2,4-trimethyl-1,2-dihydroquinoline] | 100 |
| COc1cc(OS(=O)(=O)C(C)C)ccc1-c1ccc2c(c1COc1cc([N+](=O)[O-])ccc1C)C(C)=CC(C)(C)N2 [Compound 4-26, 6-(4-Isopropylsulfonyloxy-2-methoxyphenyl)-5-(2-methyl-5-nitrophenoxymethyl)-2,2,4-trimethyl-1,2-dihydroquinoline] | 100 |
| COc1cc(OC(=O)Cc2ccccc2)ccc1-c1ccc2c(c1COc1cc(F)ccc1C)C(C)=CC(C)(C)N2 [Compound 1-21, 5-(5-Fluoro-2-methylphenoxymethyl)-6-(2-methoxy-4-phenylacetoxyphenyl)-2,2,4-trimethyl-1,2-dihydroquinoline] | 100 |
| COc1cc(OC(=O)Nc2ccccc2Cl)ccc1-c1ccc2c(c1COc1cc(F)ccc1C)C(C)=CC(C)(C)N2 [Compound 6-3, 6-[4-(2-Chlorophenylaminocarbonyloxy)-2-methoxyphenyl]-5-(5-fluoro-2-methylphenoxymethyl)-2,2,4-trimethyl-1,2-dihydroquinoline] | 98 |
| COc1cc(OC(=O)c2cncs2)ccc1-c1ccc2c(c1COc1cc(F)ccc1C)C(C)=CC(C)(C)N2 [Compound 1-55, 5-(5-Fluoro-2-methylphenoxymethyl)-6-[2-methoxy-4-(thiazol-5-ylcarbonyloxy)phenyl]-2,2,4-trimethyl-1,2-dihydroquinoline] | 100 |
| COc1ccc(NC(=O)Oc2ccc(-c3ccc4c(c3COc3cc(F)ccc3C)C(C)=CC(C)(C)N4)c(OC)c2)cc1 [Compound 6-13, 5-(5-Fluoro-2-methylphenoxymethyl)-6-[2-methoxy-4-(4-methoxyphenylaminocarbonyloxy)phenyl]-2,2,4-trimethyl-1,2-dihydroquinoline] | 100 |
| COc1cc(OC(=O)c2cn(C(=O)OC(C)(C)C)cn2)ccc1-c1ccc2c(c1COc1cc(F)ccc1C)C(C)=CC(C)(C)N2 [Compound 1-53, 6-[4-(1-t-Butoxycarbonylimidazol-4-ylcarbonyloxy)-2-methoxyphenyl]-5-(5-fluoro-2-methylphenoxymethyl)-2,2,4-trimethyl-1,2-dihydroquinoline] | 100 |
| COc1cc(OC(=O)Cc2cccnc2)ccc1-c1ccc2c(c1COc1cc(F)ccc1C)C(C)=CC(C)(C)N2 [Compound 1-64, 5-(5-Fluoro-2-methylphenoxymethyl)-6-[2-methoxy-4-(pyridin-3-ylacetoxy)phenyl]-2,2,4-trimethyl-1,2-dihydroquinoline] | 100 |
